The record followed here is US9777000B2, “Pyrazole derivative” (MOCHIDA PHARMACEUTICAL CO., LTD., priority 2013, dated 2017).

Sequence of human PDE10 (Q9Y233 whole entry): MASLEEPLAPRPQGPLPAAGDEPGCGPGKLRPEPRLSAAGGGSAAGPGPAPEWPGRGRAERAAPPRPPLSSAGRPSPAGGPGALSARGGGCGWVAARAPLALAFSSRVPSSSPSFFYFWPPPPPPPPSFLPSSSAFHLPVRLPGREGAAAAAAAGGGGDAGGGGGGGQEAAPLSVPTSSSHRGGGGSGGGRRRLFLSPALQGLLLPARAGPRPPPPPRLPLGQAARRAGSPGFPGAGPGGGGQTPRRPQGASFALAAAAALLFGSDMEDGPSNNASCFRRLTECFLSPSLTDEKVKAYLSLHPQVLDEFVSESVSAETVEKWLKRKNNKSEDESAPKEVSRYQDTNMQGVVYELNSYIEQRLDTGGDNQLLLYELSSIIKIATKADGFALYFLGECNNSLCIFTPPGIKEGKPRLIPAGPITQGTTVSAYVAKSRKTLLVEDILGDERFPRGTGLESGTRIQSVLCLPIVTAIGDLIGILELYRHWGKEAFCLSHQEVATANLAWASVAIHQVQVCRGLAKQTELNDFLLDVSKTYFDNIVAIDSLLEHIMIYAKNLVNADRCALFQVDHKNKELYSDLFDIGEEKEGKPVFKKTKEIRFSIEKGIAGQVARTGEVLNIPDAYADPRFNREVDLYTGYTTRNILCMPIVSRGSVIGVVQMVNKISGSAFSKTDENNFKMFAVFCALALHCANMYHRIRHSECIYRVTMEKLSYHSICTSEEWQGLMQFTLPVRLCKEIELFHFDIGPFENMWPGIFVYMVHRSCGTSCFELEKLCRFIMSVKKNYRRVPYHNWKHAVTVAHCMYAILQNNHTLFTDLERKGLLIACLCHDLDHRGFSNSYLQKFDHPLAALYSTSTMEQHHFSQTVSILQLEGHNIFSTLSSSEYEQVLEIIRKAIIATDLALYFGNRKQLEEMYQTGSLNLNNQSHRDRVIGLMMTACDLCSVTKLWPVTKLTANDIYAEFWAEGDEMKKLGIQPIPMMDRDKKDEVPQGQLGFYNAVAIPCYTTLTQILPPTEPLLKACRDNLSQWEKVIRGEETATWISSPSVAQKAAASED

In this assay the target is human PDE10 (Homo sapiens (Human), UniProt Q9Y233). In words: Evaluation of enzyme inhibitory activity: human PDE10 inhibitory effect (IMAP TR-FRET). The conditions noted are these: cAMP substrate. It is filed as biochemical. The method, then:
(Evaluation of Enzyme Inhibitory Activity: Human PDE10 Inhibitory Effect)
IMAP TR-FRET Phosphodiersterase Evaluation Assay Kit (Molecular Device) was used for the measurement. Ten μL of a diluted test compound having each concentration and 5 μL of the enzyme PDE10 (BPA Bioscience) that had been diluted to 2 ng/mL with 1×IMAP Reaction Buffer (prepared with 5×included with the kit, 10 mM Tris-HCl, pH=7.2, 10 mM MgCl2, 0.05% NaN3, and 0.1% BSA) containing 0.1% BSA were added to a 384-well plate (Corning). The obtained mixture was then pre-incubated at room temperature for 5 minutes. Thereafter, 5 μL of cAMP substrate solution which was included with the kit and diluted to 400 nM with 1×IMAP Reaction Buffer containing 0.1% BSA, was added to the reaction solution, and the obtained mixture was reacted at room temperature for 60 minutes. Thereafter, 60 μL of an IMAP TR-FRET Binding solution included with the kit was further added to the reaction solution, and the obtained mixture was then left for 3 hours or more. Subsequently, using ARVO SX (PerkinElmer), the fluorescent intensity of Terbium (Emission=490 nm) and TR-FRET (Emission=520 nm) in the reaction solution were measured at an excitation wavelength of 340 nm, so as to calculate the amount of the generated 5′-AMP. The count of a well to which a solvent had been added instead of the test compound was set at 0%, and the count of a well to which the enzyme PDE10 had not been added was set at 100%. Thus, the inhibitory activity of each test compound was calculated.
The PDE10 inhibitory activity of the test compound was indicated with an IC50 value. […] The test compounds are shown in Table 3 (Table 3-1 and Table 3-2).
(In general: TR-FRET usually uses a lanthanide donor and a delayed reading to cut background.)
The IC50 is the midpoint of a concentration-inhibition curve. A lower IC50 goes with greater potency. For `Cc1ccc(-c2cnn(C)c2C(=O)Nc2ccn3cc(-c4ccccc4)nc3c2)nc1` [Example 1.1, 1-methyl-4-(5-methylpyridin-2-yl)-N-(2-phenylimidazo[1,2-a]pyridin-7-yl)-1H-pyrazole-5-carboxamide], the half-inhibitory concentration (IC50) is below 5 nM.

In turn, `Cc1csc(-c2cnn(C)c2C(=O)Nc2ccn3cc(-c4ccccc4)nc3c2)n1` [Example 1.2, 1-methyl-4-(4-methylthiazol-2-yl)-N-(2-phenylimidazo[1,2-a]pyridin-7-yl)-1H-pyrazole-5-carboxamide] registered an IC50 below 5 nM.

For the compound `Cn1ncc(-c2nc(C(F)F)cs2)c1C(=O)Nc1ccn2cc(-c3ccccc3)nc2c1` [Example 1.3, 4-(4-(difluoromethyl)thiazol-2-yl)-1-methyl-N-(2-phenylimidazo[1,2-a]pyridin-7-yl)-1H-pyrazole-5-carboxamide], the IC50 is below 5 nM.

`Cc1sc(-c2cnn(C)c2C(=O)Nc2ccn3cc(-c4ccccc4)nc3c2)nc1C(F)F` [Example 1.4, 4-(4-(difluoromethyl)-5-methylthiazol-2-yl)-1-methyl-N-(2-phenylimidazo[1,2-a]pyridin-7-yl)-1H-pyrazole-5-carboxamide] came in with an IC50 below 5 nM.

`Cn1ncc(-c2nc(C(F)(F)F)cs2)c1C(=O)Nc1ccn2cc(-c3ccccc3)nc2c1` [Example 1.5, 1-methyl-N-(2-phenylimidazo[1,2-a]pyridin-7-yl)-4-(4-(trifluoromethyl)thiazol-2-yl)-1H-pyrazole-5-carboxamide]: the IC50 is below 5 nM.

In turn, `Cn1ncc(-c2cccc(C(F)(F)F)n2)c1C(=O)Nc1ccn2cc(-c3ccccc3)nc2c1` [Example 1.6, 1-methyl-N-(2-phenylimidazo[1,2-a]pyridin-7-yl)-4-(6-(trifluoromethyl)pyridin-2-yl)-1H-pyrazole-5-carboxamide] came in with an IC50 below 5 nM.

In turn, `Cn1ncc(-c2nc(C(F)F)c(Cl)s2)c1C(=O)Nc1ccn2cc(-c3ccccc3)nc2c1` [Example 1.7, 4-(5-chloro-4-(difluoromethyl)thiazol-2-yl)-1-methyl-N-(2-phenylimidazo[1,2-a]pyridin-7-yl)-1H-pyrazole-5-carboxamide] came in with an IC50 below 5 nM.

Consider `Cn1ncc(-c2nc(C(F)(F)F)cs2)c1C(=O)NC1CCn2cc(-c3ccccc3)nc2C1` (stereo not drawn) [Example 2.3, 1-methyl-N-(2-phenyl-5,6,7,8-tetrahydroimidazo[1,2-a]pyridin-7-yl)-4-(4-(trifluoromethyl)thiazol-2-yl)-1H-pyrazole-5-carboxamide], for which the IC50 was below 5 nM.

`Cn1ncc(-c2nc(C(F)F)cs2)c1C(=O)NC1CCn2cc(-c3ccccc3)nc2C1` (stereo not drawn) [Example 2.4, 4-(4-(difluoromethyl)thiazol-2-yl)-1-methyl-N-(2-phenyl-5,6,7,8-tetrahydroimidazo[1,2-a]pyridin-7-yl)-1H-pyrazole-5-carboxamide] registered an IC50 below 5 nM.

For `Cn1ncc(-c2nc(C(F)F)c(Cl)s2)c1C(=O)NC1CCn2cc(-c3ccccc3)nc2C1` (stereo not drawn) [Example 2.5, 4-(5-chloro-4-(difluoromethyl)thiazol-2-yl)-1-methyl-N-(2-phenyl-5,6,7,8-tetrahydroimidazo[1,2-a]pyridin-7-yl)-1H-pyrazole-5-carboxamide], the IC50 is below 5 nM.

The compound `Cc1sc(-c2cnn(C)c2C(=O)NC2CCn3cc(-c4ccccc4)nc3C2)nc1C(F)F` (stereo not drawn) [Example 2.6, 4-(4-(difluoromethyl)-5-methylthiazol-2-yl)-1-methyl-N-(2-phenyl-5,6,7,8-tetrahydroimidazo[1,2-a]pyridin-7-yl)-1H-pyrazole-5-carboxamide] displayed an IC50 below 5 nM.

In turn, `Cn1ncc(-c2nc(C(F)(F)F)cs2)c1C(=O)NC1CCn2cc(-c3cccc(F)c3)nc2C1` (stereo not drawn) [Example 2.8, N-(2-(3-fluorophenyl)-5,6,7,8-tetrahydroimidazo[1,2-a]pyridin-7-yl)-1-methyl-4-(4-(trifluoromethyl)thiazol-2-yl)-1H-pyrazole-5-carboxamide] yielded an IC50 below 5 nM.

`Cc1cccc(-c2cnn(C)c2C(=O)NC2CCn3cc(-c4ccccc4)nc3C2)n1` (stereo not drawn) [Example 2.9, 1-methyl-4-(6-methylpyridin-2-yl)-N-(2-phenyl-5,6,7,8-tetrahydroimidazo[1,2-a]pyridin-7-yl)-1H-pyrazole-5-carboxamide] had an IC50 below 5 nM.

Regarding `COc1cccc(-c2cnn(C)c2C(=O)NC2CCn3cc(-c4ccccc4)nc3C2)n1` (stereo not drawn) [Example 2.11, 4-(6-methoxypyridin-2-yl)-1-methyl-N-(2-phenyl-5,6,7,8-tetrahydroimidazo[1,2-a]pyridin-7-yl)-1H-pyrazole-5-carboxamide], the IC50 was below 5 nM.

Consider `Cc1nc(-c2cnn(C)c2C(=O)NC2CCn3cc(-c4ccccc4)nc3C2)cs1` (stereo not drawn) [Example 2.12, 1-methyl-4-(2-methylthiazol-4-yl)-N-(2-phenyl-5,6,7,8-tetrahydroimidazo[1,2-a]pyridin-7-yl)-1H-pyrazole-5-carboxamide], for which the IC50 was below 5 nM.

For the compound `Cc1cncc(-c2cnn(C)c2C(=O)NC2CCn3cc(-c4ccccc4)nc3C2)n1` (stereo not drawn) [Example 2.13, 1-methyl-4-(6-methylpyrazin-2-yl)-N-(2-phenyl-5,6,7,8-tetrahydroimidazo[1,2-a]pyridin-7-yl)-1H-pyrazole-5-carboxamide], the IC50 was below 5 nM.

Take `CC(C)c1nsc(-c2cnn(C)c2C(=O)NC2CCn3cc(-c4ccccc4)nc3C2)n1` (stereo not drawn) [Example 2.14, 4-(3-isopropyl-1,2,4-thiadiazol-5-yl)-1-methyl-N-(2-phenyl-5,6,7,8-tetrahydroimidazo[1,2-a]pyridin-7-yl)-1H-pyrazole-5-carboxamide]: the IC50 was below 5 nM.

On to `Cc1cnc(-c2cnn(C)c2C(=O)NC2CCn3cc(-c4ccccc4)nc3C2)s1` (stereo not drawn) [Example 2.15, 1-methyl-4-(5-methylthiazol-2-yl)-N-(2-phenyl-5,6,7,8-tetrahydroimidazo[1,2-a]pyridin-7-yl)-1H-pyrazole-5-carboxamide], for which the IC50 was below 5 nM.

`Cn1ncc(-c2nc(C(F)(F)F)cs2)c1C(=O)NC1CCn2c(nc(-c3ccccc3)c2F)C1` (stereo not drawn) [Example 2.19, N-(3-fluoro-2-phenyl-5,6,7,8-tetrahydroimidazo[1,2-a]pyridin-7-yl)-1-methyl-4-(4-(trifluoromethyl)thiazol-2-yl)-1H-pyrazole-5-carboxamide] had an IC50 below 5 nM.

Compound `Cc1ccnc(-c2cnn(C)c2C(=O)NC2CCn3cc(-c4ccccc4)nc3C2)c1` (stereo not drawn) [Example 2.22, 1-methyl-4-(4-methylpyridin-2-yl)-N-(2-phenyl-5,6,7,8-tetrahydroimidazo[1,2-a]pyridin-7-yl)-1H-pyrazole-5-carboxamide] registered an IC50 below 5 nM.

For the compound `Cn1ncc(-c2nc(C(F)F)cs2)c1C(=O)NC1CCn2cc(-c3ccc(F)cc3)nc2C1` (stereo not drawn) [Example 2.28, 4-(4-(difluoromethyl)thiazol-2-yl)-N-(2-(4-fluorophenyl)-5,6,7,8-tetrahydroimidazo[1,2-a]pyridin-7-yl)-1-methyl-1H-pyrazole-5-carboxamide], the IC50 was below 5 nM.

`Cn1ncc(-c2nc(C(F)(F)F)cs2)c1C(=O)NC1CCn2cc(-c3ccc(F)cc3)nc2C1` (stereo not drawn) [Example 2.29, N-(2-(4-fluorophenyl)-5,6,7,8-tetrahydroimidazo[1,2-a]pyridin-7-yl)-1-methyl-4-(4-(trifluoromethyl)thiazol-2-yl)-1H-pyrazole-5-carboxamide] displayed an IC50 below 5 nM.

`Cn1ncc(-c2nc(C(F)(F)F)cs2)c1C(=O)Nc1cc2nc(-c3ccccc3)nn2cc1F` [Example 3.6, N-(6-fluoro-2-phenyl-[1,2,4]triazolo[1,5-a]pyridin-7-yl)-1-methyl-4-(4-(trifluoromethyl)thiazol-2-yl)-1H-pyrazole-5-carboxamide] gave a 50% inhibitory concentration (IC50) below 5 nM.

The compound `COc1cccnc1-c1cnn(C)c1C(=O)Nc1cc2nc(-c3ccccc3)nn2cc1F` [Example 3.7, N-(6-fluoro-2-phenyl-[1,2,4]triazolo[1,5-a]pyridin-7-yl)-4-(3-methoxypyridin-2-yl)-1-methyl-1H-pyrazole-5-carboxamide] showed an IC50 below 5 nM.

Compound `Cn1ncc(-c2ccc(F)cn2)c1C(=O)Nc1cc2nc(-c3ccccc3)nn2cc1F` [Example 3.8, N-(6-fluoro-2-phenyl-[1,2,4]triazolo[1,5-a]pyridin-7-yl)-4-(5-fluoropyridin-2-yl)-1-methyl-1H-pyrazole-5-carboxamide] yielded an IC50 below 5 nM.

`Cc1cncc(-c2cnn(C)c2C(=O)Nc2cc3nc(-c4ccccc4)nn3cc2F)n1` [Example 3.9, N-(6-fluoro-2-phenyl-[1,2,4]triazolo[1,5-a]pyridin-7-yl)-1-methyl-4-(6-methylpyrazin-2-yl)-1H-pyrazole-5-carboxamide] showed an IC50 below 5 nM.

`Cc1cc(C)nc(-c2cnn(C)c2C(=O)Nc2cc3nc(-c4ccccc4)nn3cc2F)c1` [Example 3.11, 4-(4,6-dimethylpyridin-2-yl)-N-(6-fluoro-2-phenyl-[1,2,4]triazolo[1,5-a]pyridin-7-yl)-1-methyl-1H-pyrazole-5-carboxamide] yielded an IC50 below 5 nM.
